Tested on: CD37-expressing Daudi cancer B-cell line
Assay: Antibody Dependent Cellular Cytotoxicity (ADCC) assay, 51Cr release, PBL effector cells
Assay type: cell-based, human
Conditions: TRU-016 treated with CS over a range of 100 μM-800 μM final concentration
Protocol: TRU-016 produced as described in Example 8 is incubated with the CD37-expressing Daudi cancer B-cell line in conjunction with primary human peripheral blood lymphocytes (PBL's) effector cells to assess ADCC activity.
Daudi target cells (5×10̂6) are added to a 15 ml conical tube and then centrifuged at 250×g for 5 minutes at 20° C. and the supernatant removed. The cell pellet is resuspended by the addition of 0.3 mCi Chromium-51 (^51Cr, GE Healthcare, CJ51). The cells are incubated for 75 minutes at 37° C. with 5% CO2, allowing the cells to incorporate the radioactive isotope. The cells are then washed three times to remove any unincorporated ^51Cr. This is done by adding 10 mL of complete media—IMDM (Gibco) with 10% FBS (Gibco)—to the tube, centrifuging at 250×g for 5 minutes at 20° C. followed by removal of supernatant. The final resuspension is in 11.5 mL of complete media. TRU-016 is diluted in complete media, at concentrations that are able to generate maximal to background levels of cell lysis (500 ng/mL-0.005 ng/mL). These titrations are plated out, 50 μL/well, in a round bottom 96 well plate. The ^51Cr labeled target cells are added to the dose titrations of TRU-016 at 50 μL/well and the control wells (control media without TRU-016). PBL's are isolated from fresh heparinized whole blood by density gradient centrifugation using Lymphocyte Separation Media as per protocol (LSM, MP Biomedical, 50494/36427). […] The assay is incubated for 4.5-5 hours at 37° C., 5% CO2. The effector cells lyse the target cells relative to the TRU-016 concentration, releasing a proportional amount of ^51Cr into the assay supernatant. Following the incubation the plate is centrifuged at 250×g for 3 minutes at 20° C. A 25 μL volume of cell-free supernatant is removed from all wells to a scintillation plate (Perkin Elmer 6005185) and dried overnight. The amount of ^51Cr isotope in each well of the scintillation plate is measured using a Topcount plate reader (Perkin Elmer, C9904V0). The data are expressed as percent of specific release. Specific release is calculated as:
(Sample value−Spontaneous value)/(Maximum value−Spontaneous value)*100% • Spontaneous=amount of ^51Cr released from target cell only • Maximum release=amount of ^51Cr released from targets treated with detergent lysing agent • Background Control=amount of ^51Cr released from target cells+effector cells (No TRU-016)
A dose response is generated and fit to a 4-parameter logistic curve using SoftMax Pro software (Molecular Devices, ver 5.0.1). Titrations of TRU-016 are utilized to create dose response curves of test and reference material for comparison. The EC50 values for the treated articles are compared to the untreated control (no CS) to determine the percent increase in ADCC activity.

Q: “TRU-016: recombinant single chain protein (SMIP) that binds CD37; G28-1 binding domain, modified hinge, human IgG1 CH2 and CH3; SEQ ID NO: 2” was tested. Which “ADCC activity relative to untreated TRU-016” value did it give?
A: significantly increased
